≈ marks a conversion by molar mass, not a printed value. Where two headings read alike, the source gives them in different places.
Tests used:
[1] = target: T1, M. tuberculosis InhA (Mycobacterium tuberculosis, UniProt P9WGR1); assay: biochemical; assay type: binding
[2] = test system: M. tuberculosis Erdman; assay type: in vivo, Mycobacterium tuberculosis; conditions: for reduction in M. tuberculosis lung burdens / reduction in M. tuberculosis spleen burdens: 9-d treatment; for Mean ± SEM Log10 CFU: dose escalation study (Table S4), day 22
[3] = for Ratio Plasma AUC0-last / Dose / Ratio Plasma Cmax/Dose: C57Bl/6 mice
[4] = in vitro; assay type: cell-based; conditions: human; read-out: HepG2 cytotoxicity IC50
Description: HepG2 human liver cells (ATCC HB 8065) were propagated in DMEM containing either 25 mM glucose or 10 mM galactose plus 10% vol/vol FBS, 1 mM sodium pyruvate, 2 mM Corning glutagro, 100 U/ml penicillin, and 100 μg/ml streptomycin. The cells were seeded in 384-well plates at 1,800 cells per well and incubated in a humidified incubator at 37°C, 5% CO2. Compounds were solubilized in DMSO and assayed using a 10-point threefold serial dilution. Compounds were added 24 h post cell seeding to a final assay concentration of 1% DMSO and highest compound concentration of 100 μM. The cells were incubated for 72 h and viability measured using CellTiter-Glo reagent (Promega) and reading RLU. Growth inhibition curves were fitted using the Levenberg–Marquardt algorithm. The IC50 was defined as the compound concentration that produced 50% of the inhibitory response against HepG2 cells.

[5] = test system: M. tuberculosis Erdman TMCC 107; assay: microbe, parasite or virus in culture; assay type: cell-based; conditions: Mycobacterium tuberculosis, read-out: potency (MIC) against M. tuberculosis Erdman TMCC 107
[6] = in vivo; conditions: female; for AUC(0-t): AUClast
[7] = test system: M. tuberculosis H37Rv; assay: Kill kinetics under replicating conditions; assay type: cell-based, Mycobacterium tuberculosis
[8] = test system: intracellular M. tuberculosis in THP-1 cells; assay: microbe, parasite or virus in culture; assay type: cell-based; conditions: Mycobacterium tuberculosis
[9] = in vitro; conditions: human
[10] = mouse plasma
[11] = human serum
[12] = target: T1, M. tuberculosis InhA; assay: InhA in vitro inhibition assay; assay type: biochemical
[13] = test system: M. tuberculosis Erdman; assay type: in vivo, Mycobacterium tuberculosis; conditions: 100 mg/kg
[14] = test system: M. tuberculosis H37Rv; assay: microbe, parasite or virus in culture; assay type: cell-based, Mycobacterium tuberculosis; conditions: Mycobacterium tuberculosis, H37RV; whole-cell M. tuberculosis
[15] = BALB/c, mouse, po, 10 mg/kg, BALB/c (infected) mice, oral 10 mg/kg QD-3 wk, plasma
[16] = BALB/c, mouse, po, 50 mg/kg, BALB/c (infected) mice, oral 50 mg/kg QD-3 wk, plasma
[17] = C57BL/6, mouse, po, 10 mg/kg, C57Bl/6 mice, oral 10 mg/kg QD-4 days, plasma
[18] = C57BL/6, mouse, po, 10 mg/kg, C57Bl/6 mice, oral 10 mg/kg QD-4 days, lung
[19] = C57BL/6, mouse, po, 25 mg/kg, C57Bl/6 mice, oral 25 mg/kg QD-4 days, plasma
[20] = C57BL/6, mouse, po, 25 mg/kg, C57Bl/6 mice, oral 25 mg/kg QD-4 days, lung
[21] = C57BL/6, mouse, po, 50 mg/kg, C57Bl/6 mice, oral 50 mg/kg QD-4 days, plasma
[22] = C57BL/6, mouse, po, 50 mg/kg, C57Bl/6 mice, oral 50 mg/kg QD-4 days, lung
[23] = CD-1, mouse, iv, 5 mg/kg, CD-1 mice, IV 5 mg/kg, single dose, plasma
[24] = CD-1, mouse, po, 10 mg/kg, CD-1 mice, oral 10 mg/kg, single dose, lung
[25] = CD-1, mouse, po, 10 mg/kg, CD-1 mice, oral 10 mg/kg, single dose, plasma

T1 sequence (P9WGR1 whole entry, looked up): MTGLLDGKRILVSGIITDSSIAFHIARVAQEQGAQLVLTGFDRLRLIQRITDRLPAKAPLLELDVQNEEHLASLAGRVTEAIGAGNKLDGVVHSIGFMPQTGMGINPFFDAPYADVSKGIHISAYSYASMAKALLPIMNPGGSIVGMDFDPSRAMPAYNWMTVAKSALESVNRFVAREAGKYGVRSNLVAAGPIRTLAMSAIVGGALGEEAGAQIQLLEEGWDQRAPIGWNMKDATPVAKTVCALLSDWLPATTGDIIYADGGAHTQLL

## CCS(=O)(=O)N1N=Cc2ccc(Oc3ccc(C(F)(F)F)cc3/C=N/O)cc2B1O [AN12855]
[1]; cofactor: None
  Kd: 77 nM
  N (stoichiometry of binding): 0.58 ± 0.014
  ∆H: −17,740 ± 607 cal/mol
  ∆S: −27 cal/mol/deg
[1]; in the presence of NADH
  binding to InhA: unable to bind
[2]; 10 mg/kg
  reduction in M. tuberculosis lung burdens: 2.3 log10
  reduction in M. tuberculosis spleen burdens: 2.1 log10
[2]; 25 mg/kg
  reduction in M. tuberculosis lung burdens: 2.7 log10
  reduction in M. tuberculosis spleen burdens: 3.2 log10
[2]; 50 mg/kg
  reduction in M. tuberculosis lung burdens: 3.7 log10
  reduction in M. tuberculosis spleen burdens: 3.6 log10
[2]; lung, 50 mg/kg
  Mean ± SEM Log10 CFU: 5.8 ± 0.05 Log10 CFU
[2]; lung, 100 mg/kg
  Mean ± SEM Log10 CFU: 5.0 ± 0.13 Log10 CFU
[2]; lung, 200 mg/kg
  Mean ± SEM Log10 CFU: 5.6 ± 0.06 Log10 CFU
[2]; organ Lung, 50 mg/kg
  Mean ± SEM Log10 CFU: 2.5 ± 0.24 Log10 CFU
[2]; organ Lung, 100 mg/kg
  Mean ± SEM Log10 CFU: 2.5 ± 0.05 Log10 CFU
[2]; organ Lung, 200 mg/kg
  Mean ± SEM Log10 CFU: 3.0 ± 0.10 Log10 CFU
[3]; oral 10 mg/kg QD-4 days
  Ratio Plasma AUC0-last / Dose: 1.8
  Ratio Plasma Cmax/Dose: 0.58
[3]; oral 25 mg/kg QD-4 days
  Ratio Plasma AUC0-last / Dose: 1.9
  Ratio Plasma Cmax/Dose: 0.5
[3]; oral 50 mg/kg QD-4 days
  Ratio Plasma AUC0-last / Dose: 1.6
  Ratio Plasma Cmax/Dose: 0.3
[3]; CD-1 mice, oral 10 mg/kg
  total lung exposure lower than plasma AUC: 33%
[4]
  IC50: > 100000 nM
[5]; with 4% human serum albumin
  MIC: 2.3 µM (≈ 1.01 µg/mL)
[5]; without human serum albumin
  MIC: 0.28 µM (≈ 0.124 µg/mL)
[6]; BALB/c, mouse, po, 10 mg/kg
  AUC(0-inf): 29000 ng·h/mL
  half-life: 3.04 h
[6]; [15]
  AUC(0-t): 28900 ng·h/mL
  Cmax: 8360 ng/mL
  Tmax: 0.5 h
[6]; BALB/c, mouse, po, 50 mg/kg
  AUC(0-inf): 192000 ng·h/mL
  half-life: 2.4 h
[6]; [16]
  AUC(0-t): 192000 ng·h/mL
  Cmax: 61600 ng/mL
  Tmax: 0.5 h
[6]; C57BL/6, mouse, po, 10 mg/kg
  AUC(0-inf): 19700 ng·h/mL
  half-life: 2.5 h
[6]; [17]
  AUC(0-t): 17600 ng·h/mL
  Cmax: 5790 ng/mL
  Tmax: 0.5 h
[6]; [18]
  Cmax: 584 ng/mL
  Tmax: 5 h
[6]; C57BL/6, mouse, po, 10 mg/kg, Ratio (Lung / Plasma) @ 5 hr, C57Bl/6 mice, oral 10 mg/kg QD-4 days
  Kp: 0.39
[6]; C57BL/6, mouse, po, 10 mg/kg, Ratio (Lung / Plasma) @ 8 hr, C57Bl/6 mice, oral 10 mg/kg QD-4 days
  Kp: 0.51
[6]; C57BL/6, mouse, po, 25 mg/kg
  AUC(0-inf): 59000 ng·h/mL
  half-life: 3.52 h
[6]; [19]
  AUC(0-t): 46800 ng·h/mL
  Cmax: 12600 ng/mL
  Tmax: 0.5 h
[6]; [20]
  Cmax: 1900 ng/mL
  Tmax: 5 h
[6]; C57BL/6, mouse, po, 25 mg/kg, Ratio (Lung / Plasma) @ 5 hr, C57Bl/6 mice, oral 25 mg/kg QD-4 days
  Kp: 0.48
[6]; C57BL/6, mouse, po, 25 mg/kg, Ratio (Lung / Plasma) @ 8 hr, C57Bl/6 mice, oral 25 mg/kg QD-4 days
  Kp: 0.49
[6]; C57BL/6, mouse, po, 50 mg/kg
  AUC(0-inf): 109000 ng·h/mL
  half-life: 3.76 h
[6]; [21]
  AUC(0-t): 82400 ng·h/mL
  Cmax: 14900 ng/mL
  Tmax: 0.5 h
[6]; [22]
  Cmax: 3500 ng/mL
  Tmax: 5 h
[6]; C57BL/6, mouse, po, 50 mg/kg, Ratio (Lung / Plasma) @ 5 hr, C57Bl/6 mice, oral 50 mg/kg QD-4 days
  Kp: 0.36
[6]; C57BL/6, mouse, po, 50 mg/kg, Ratio (Lung / Plasma) @ 8 hr, C57Bl/6 mice, oral 50 mg/kg QD-4 days
  Kp: 0.47
[6]; CD-1, mouse
  half-life: 3.5 h
[6]; CD-1, mouse, iv, 5 mg/kg
  AUC(0-inf): 14400 ng·h/mL
  MRT inf: 3.64 h
  Vd: 1.27 L/kg
  clearance: 5.8 mL/min/kg
  half-life: 3.46 h
[6]; [23]
  AUC(0-t): 14300 ng·h/mL
  Cmax: 6320 ng/mL
[6]; CD-1, mouse, po, 10 mg/kg
  AUC(0-inf): 15500 ng·h/mL
  bioavailability: 53%
  half-life: 3.27 h
[6]; [24]
  AUC(0-t): 10400 ng·h/mL
  Cmax: 1020 ng/mL
  Tmax: 4 h
[6]; [25]
  AUC(0-t): 15400 ng·h/mL
  Cmax: 1740 ng/mL
  Tmax: 0.5 h
[7]
  bactericidal activity: concentration-dependent bactericidal activity
[7]; replicating conditions, 10× the IC90
  time to reach the limit of detection: 7 days
[8]
  IC50: 21 ± 3 nM
  IC90: 40 ± 10 nM
[9]
  IC50: > 50000 nM
[10]
  protein bound: 98.5%
[11]
  protein bound: 88%
[12]
  IC50: 30 nM
[13]; 2 weeks of treatment
  reduction in lung burdens: 0.47 log10 CFU
[13]; 4 weeks of treatment
  reduction in lung burdens: 0.81 log10 CFU
[13]; 8 weeks of treatment
  reduction in lung burdens: 1.73 log10 CFU
  reduction in spleens: more than three log10 reductions
[14]
  IC90: 90 ± 50 nM

— paper PMC6238539, “Discovery of a cofactor-independent inhibitor of Mycobacterium tuberculosis InhA” (Life Science Alliance, 2018)
